{
  "source": "patent US11975009B2",
  "about": "“Use of zinc porphyrin as an antimicrobial” (ZNABLE LLC, priority 2022, dated 2024)",
  "key": {"[1]": {"tested_on": "S. aureus MSSA and MRSA strains (GP)", "test": "Killing activity against a range of bacteria", "type": "cell-based, Staphylococcus aureus"}, "[2]": {"tested_on": "PAO1 and PA14 strains of PsA", "test": "Time kill curves, planktonic cells", "type": "cell-based, Pseudomonas aeruginosa", "procedure": "FIGS. 13A-13B show the time kill curve of ZnPor (II) (25 μg/mL) against PAO1 (FIG. 12A) and PA14 (FIG. 12B) strains of PsA. Overnight cultures of strain PAO1 and PA14 grown in MSG media were diluted in fresh MSG to 10^6 cells/mL with fresh medium. ZnPor was added (25 μg/ml) and cultures were grown aerobically, with shaking, for 6 hours. Viable cell count (CFU per ml) was determined by serially diluting bacterial cells at the indicated time points, onto LB agar. Data from 3 separate experiments represents total mean±standard error, total (n=9) and (n=8) respectively."}, "[3]": {"tested_on": "Mycobacterium smegmatis (proxy for M. tuberculosis)", "test": "Killing activity against a range of bacteria", "type": "cell-based"}, "ex-vivo grown lung cells": {"tested_on": "ex-vivo grown lung cells", "test": "Toxicity to ex-vivo grown lung cells versus effective concentration"}, "[4]": {"tested_on": "Pseudomonas aeruginosa (GN)", "test": "Killing activity against a range of bacteria", "type": "cell-based"}, "Listeria monocytogenes [5]": {"tested_on": "Listeria monocytogenes", "test": "Killing activity against a range of bacteria", "type": "cell-based"}, "A549/U937": {"tested_on": "A549/U937", "type": "cell-based", "procedure": "FIGS. 22A-22B show a lung co-culture (A549/U937) model after 24 hour exposure to ZnPor displaying no toxicity (FIG. 22A) and U937 stained and imaged after 24 hours of dark exposure to 50 μM ZnPor (FIG. 22B)."}, "PsA": {"tested_on": "PsA", "test": "Testing for bacterial resistance", "type": "cell-based, Pseudomonas aeruginosa", "text": "One of the major concerns of developing novel small molecule antimicrobials is the potential for bacteria to develop resistance. […] The mechanism of action and target are believed to explain the absence of resistance. An MBC:MIC ratio of 2 which is what we derived from kill curves, was considered an indication of lack of resistance."}, "Listeria monocytogenes [6]": {"tested_on": "Listeria monocytogenes", "test": "Killing of Listeria inside macrophages", "type": "cell-based", "details": "macrophages treated with ZnPor (II) vs control", "procedure": "A growing number of bacteria are being discovered as having the ability to enter and grow within human cells. The model bacterium used to test this was: Listeria monocytogenes. This bacterium is well known for its ability to survive inside human cells and using actin tails (sourced from the host cell) to propel themselves out of one cell and into another. The L. monocytogenes bacteria were incubated with macrophages. […] Then macrophages were cracked open and plated on antibiotic plates to get a viable count of the number of cells taken up (control) and compared to macrophages treated with ZnPor (II)."}, "[7]": {"tested_on": "Human airway epithelial (BEAS2B, 16HBE, CFBE) and alveolar epithelial (A549) cells", "test": "LDH in supernatant of pulmonary cell lines", "type": "cell-based", "procedure": "Representative of one experiment.\nHuman airway epithelial (BEAS2B, 16HBE, CFBE) and alveolar epithelial (A549) cells were cultured, plated on 12-well plates, serum starved overnight, and treated with increasing doses of ZnPor. Cell culture supernatants were collected after 48 h of treatment, and supernatants were then assayed for lactate dehydrogenase (LDH), a general marker of cell death released into the supernatant after cell lysis."}, "A549 cells": {"tested_on": "A549 cells", "test": "Lung cell toxicity, traditional cell culture", "type": "cell-based, human", "details": "concentration exceeding therapeutic range", "text": "Sample represented in graph is a traditional cell culture model and the cells were A549 cells—human lung epithelial cells."}, "[8]": {"type": "physicochemical", "text": "As used herein, “water soluble” refers to a property wherein a material is miscible in water, or in other words, is a capable of forming a homogenous solution with water at ambient conditions."}, "[9]": {"tested_on": "Coronavirus isolated from a cold (ATCC)", "test": "Anti-viral activity against a Coronavirus", "type": "cell-based", "details": "without light activation", "text": "ZnPor (II) can interact with many macromolecules and may bind to important components of a virus, rendering it unable to infect cells. […] This is due to the high levels of ROSs (Reactive Oxygen Species, e.g., superoxide) produced by activation of the porphyrin and which destroy a wide range of macromolecules (proteins, lipids etc.). […] ZnPor can bind to proteins, which may have accounted for how ZnPor (II) acted, in that it bound to the viral proteins such as the spike protein of Coronaviruses. If the Spike proteins bound to ZnPor (II) then the virus couldn't attach to the host cell binding receptor for the spike proteins. There are relatively few antiviral agents. While there are a number of porphyrins that can inactivate viruses using light activation, ZnPor (II) porphyrin has antiviral activity without light activation."}},
  "data": [
    {"substance": "meso-5,10,15-tris(N-methyl-4-pyridyl)-20-(pentafluorophenyl)porphyrinatozinc(II), tris-p-toluene sulfonate [ZnPor]", "values": [
      {"measurement": "killing", "setting": "[1]", "value": "effective at killing"},
      {"measurement": "bactericidal concentration", "setting": "[2]; PsA", "value": 25, "unit": "µg/mL"},
      {"measurement": "MBC:MIC ratio", "setting": "[2]; derived from kill curves", "value": 2},
      {"measurement": "killing", "setting": "[3]", "value": "effective at killing"},
      {"measurement": "effective concentration, fold lower than that causing any toxicity", "setting": "ex-vivo grown lung cells", "value": "up to 100 ×"},
      {"measurement": "killing", "setting": "[4]", "value": "effective at killing"},
      {"measurement": "killing", "setting": "Listeria monocytogenes [5]", "value": "effective at killing"},
      {"measurement": "toxicity", "setting": "A549/U937", "value": "no toxicity"},
      {"measurement": "colony growth on LB plates", "setting": "PsA; 2×, 4× and 8×MIC concentration of ZnPor with PsA cell", "value": "No colony growth"},
      {"measurement": "resistance", "setting": "PsA; during 8 years of testing", "value": "no resistance was observed"},
      {"measurement": "number of Listeria cells in the macrophages", "setting": "Listeria monocytogenes [6]", "value": "a log reduction"},
      {"measurement": "LDH dose response", "setting": "[7]; 16HBE, CFBE, and A549 cells", "value": "dose response of decreased LDH"},
      {"measurement": "LDH in cell culture supernatant vs treatment without ZnPor", "setting": "[7]; 48 h of treatment, increasing doses", "value": "significantly less LDH"},
      {"measurement": "non-toxic level relative to the MBC for S. aureus MRSA strain", "setting": "human lung or skin cells", "value": "over 100 times"},
      {"measurement": "toxicity", "setting": "human lung or skin cells", "value": "no toxicity"},
      {"measurement": "toxicity", "setting": "A549 cells", "value": "No toxicity was observed"},
      {"measurement": "water solubility", "setting": "[8]", "value": "water soluble"},
      {"measurement": "viral infection", "setting": "[9]", "value": "prevented viral infection"}
    ]}
  ]
}
